Data set [1] concerns the target T1, opioid receptor (rat brain synaptosomal plasma membranes) (Rattus norvegicus, UniProt P33535).
T1 construct: from rat brain synaptosomal plasma membranes; from tissue; host or cells: rat brain synaptosomal plasma membranes
Nature of the data set: displacement of ^3H-dihydromorphine (^3H-DHM) from rat brain synaptosomal plasma membranes. To be noted: for Hill coefficient: ^3H-DHM displacement; for binding activity for use in detection and quantification of receptor sites: synaptosomal membranes, in words. Type of data set: binding.

Data set [2] is described as follows: hygroscopicity of sample submitted for elemental analysis. It counts as physicochemical.
Data set [3] in a line: fluorescence and absorption properties. It counts as physicochemical. To be noted: for emission maximum / excitation maximum: pH 7 phosphate buffer, 10^-6 M solution. The protocol:
The container was wrapped in aluminium foil. Thereafter, portions of ethyl alcohol and water were added to the reaction mixture.

The subject of data set [4] is guinea pig ileum longitudinal muscle. Nature of the data set: electrically stimulated guinea pig ileum longitudinal muscle preparation. To be noted: for persistence of antagonist effect on washing of ileum: after washing. The protocol:
6-FN was tested for activity on an electrically stimulated guinea pig ileum longitudinal muscle preparation. In this test, a specimen of guinea pig ileum was stretched between two wires in a nutrient solution (2.5 mil.) and stimulated supramaximally at 0.1 Hz. In the absence of opioid agonists and antagonists electrical stimulation of the muscle results in contraction.

For data set [5], the target named is T2, opioid receptor sites, ^3H-DALE indicator ligand (Rattus norvegicus, UniProt P33533).
T2 construct: from rat brain synaptosomal plasma membranes; from tissue; host or cells: rat brain synaptosomal plasma membranes (inferred from the sister test; b86 says only 'a substrate')
Nature of the data set: site selectivity analysis (Terenius and Wahlstrom), displacement of labeled ^3H-DALE in presence of cold DHM. Type of data set: binding.
Source text: (§1) In FIG. 1 it will be noted that compounds which displace the two indicator ligands differently provide a curve which is convex towards the axis of the labeled indicator ligand which is less favorably displaced.

Data set [6] concerns the target T3, opioid receptor sites, ^3H-DHM indicator ligand (Rattus norvegicus, UniProt P33535).
T3 construct: from rat brain synaptosomal plasma membranes; from tissue; host or cells: rat brain synaptosomal plasma membranes (inferred from the sister test; b86 says only 'a substrate')
Put plainly: site selectivity analysis (Terenius and Wahlstrom), displacement of labeled ^3H-DHM in presence of cold DALE. It counts as binding.
Source text: as §1

Where [7] appears, read: determined graphically, rat brain synaptosomal plasma membranes.

SMILES strings stand for the structures. Entries after “also recorded” stand apart in the source; their conditions may differ. Where two headings read alike, the source gives them in different places.

T1 sequence (P33535 whole entry): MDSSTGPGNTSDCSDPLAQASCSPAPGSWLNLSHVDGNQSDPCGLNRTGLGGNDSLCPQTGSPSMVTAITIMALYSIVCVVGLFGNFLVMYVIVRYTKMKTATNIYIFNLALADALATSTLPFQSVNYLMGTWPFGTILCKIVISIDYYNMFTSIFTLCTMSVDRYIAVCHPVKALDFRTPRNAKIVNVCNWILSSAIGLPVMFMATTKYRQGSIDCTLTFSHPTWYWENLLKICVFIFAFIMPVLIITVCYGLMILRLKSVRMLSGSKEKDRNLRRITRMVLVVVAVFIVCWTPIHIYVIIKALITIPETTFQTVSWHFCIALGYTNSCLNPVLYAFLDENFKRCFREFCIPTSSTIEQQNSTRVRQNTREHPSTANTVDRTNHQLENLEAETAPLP
T3 sequence (P33535 whole entry): as above
T2 sequence (P33533 whole entry): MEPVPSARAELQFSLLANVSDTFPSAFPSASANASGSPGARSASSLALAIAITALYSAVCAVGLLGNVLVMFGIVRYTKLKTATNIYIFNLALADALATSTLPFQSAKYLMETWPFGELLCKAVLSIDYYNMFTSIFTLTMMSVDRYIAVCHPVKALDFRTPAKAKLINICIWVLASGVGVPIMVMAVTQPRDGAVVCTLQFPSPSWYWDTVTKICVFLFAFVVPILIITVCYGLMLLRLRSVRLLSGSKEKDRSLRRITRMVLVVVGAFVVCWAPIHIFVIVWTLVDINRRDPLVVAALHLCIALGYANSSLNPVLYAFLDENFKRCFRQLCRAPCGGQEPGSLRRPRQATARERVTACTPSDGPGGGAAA

For the compound `O=C1OC2(c3ccc(O)cc3Oc3cc(O)ccc32)c2ccc(NC(=S)NN=C3CC[C@@]4(O)[C@H]5Cc6ccc(O)c7c6[C@@]4(CCN5CC4CC4)[C@H]3O7)cc21` [6-FNX, 1-(N)-fluoresceinyl naltrexone thiosemicarbazone], in data set [1], the IC50 (usually the concentration that inhibits the measured activity by half) was 5 nM; the Hill coefficient (as a rule, a measure of the steepness of the concentration-response curve) was determined as 0.675; the “binding activity for use in detection and quantification of receptor sites” value (shortened to “binding activity for use”) was “sufficient binding activity”.
Regarding `C=CCN1CC[C@]23c4c5ccc(O)c4O[C@H]2C(=NNC(=S)Nc2ccc4c(c2)C(=O)OC42c4ccc(N(C)C)cc4Oc4cc(N(C)C)ccc42)CC[C@@]3(O)[C@H]1C5` [6-RN, 1-(N)-tetramethylrhodaminyl-B-naloxone Thiosemicarbazone], in data set [1], the Hill coefficient is reported as 1.09; the “binding activity for use” value was “sufficient binding activity”.
As to `CN1CC[C@]23c4c5ccc(O)c4O[C@H]2C(=NNC(=S)Nc2ccc4c(c2)C(=O)OC42c4ccc(O)cc4Oc4cc(O)ccc42)CC[C@@]3(O)[C@H]1C5` [6-FO, 1-(N)-Fluoresceinyl Oxymorphone thiosemicarbazone], the hygroscopicity result in data set [2] was “very hygroscopic”. In data set [1], the Hill coefficient is 0.989; the “binding activity for use” value was “sufficient binding activity”. In addition, the IC50 in data set [1] (setting [7]) is 20 nM.
As to `O=C1OC2(c3ccc(O)cc3Oc3cc(O)ccc32)c2ccccc21` [free fluorescein, fluorescein, reference compound], in data set [3], the fluorescence polarization came out at 0.022, the emission maximum was 510-511 nm and the excitation maximum came to 493 nm.
For the compound `C=CCN1CC[C@]23c4c5ccc(O)c4O[C@H]2C(=NNC(=S)Nc2ccc4c(c2)C(=O)OC42c4ccc(O)cc4Oc4cc(O)ccc42)CC[C@@]3(O)[C@H]1C5` [6-FN, 1-(N)-Fluoresceinyl Naloxone Thiosemicarbazone], in data set [1], the Hill coefficient is on record as 0.671; the “binding activity for use” value is “sufficient binding activity”. This compound also had an IC50 in data set [1] (setting [7]) of 20 nM. The “agonist activity of 6-FN” value in data set [4] (10^-6 M 6-FN, FIG. 2) is listed as “slight agonist effect; also recorded: partial agonist activity”. In addition, the “persistence of antagonist effect on washing of ileum” value in data set [4] is on record as “did not readily eliminate the antagonist effect”. Also, the “antagonist effect with respect to normorphine” value in data set [4] (final 6-FN concentration 10^-7 M, prior to normorphine) is “antagonist effect; also recorded: significantly inhibited the agonist effect of normorphine”. Further, the “antagonist effect compared with inhibiting effect of naloxone” value in data set [4] (inhibition of normorphine agonist effect) is “ten times less effective”. Further, the half-inhibitory concentration (IC50) in data set [5] amounted to 17 nM. In data set [3], this compound showed a fluorescence polarization of 0.038, an emission maximum of 513 nm and an excitation maximum of 493 nm. In data set [3] (10^-5 M solution, phosphate buffer), this compound came in with an absorption maximum of 493 nm. In addition, in data set [3] (10^-5 M solution, phosphate buffer, 493 nm), the “absorbance A at absorption maximum” value is 0.410. Further, the “quantum yield compared to free fluorescein” value in data set [3] (10^-9 M) is “about 67%”. Also, in data set [6], the IC50 was determined as 12 nM. Further, the “site selectivity compared with naloxone (FIG. 1)” value in data set [6] (percent bound DALE* versus percent bound DHM*, in words) is “show clearly the difference between 6-FN and naloxone with respect to site selectivity”.
Turning to `Oc1ccc2c3c1O[C@H]1[C@@H](O)C=C[C@H]4[C@@H](C2)NCC[C@@]341` [normorphine, reference compound], the “agonist effect, inhibition of contraction of ileum” value in data set [4] (normorphine 25 microliters, 10^-7 M) is recorded as “agonist effect; also recorded: substantially inhibited contraction of the muscle”.
In the case of `C=CCN1CC[C@]23c4c5ccc(O)c4O[C@H]2C(=O)CC[C@@]3(O)[C@H]1C5` [naloxone, reference compound], in data set [4] (10^-7 M naloxone versus 10^-6 M 6-FN), the “reversal of 6-FN partial agonist activity by naloxone” value was “reversible”. Further, the “antagonist effect of naloxone with respect to 6-FN” value in data set [4] (FIG. 2 legend) is reported as “antagonist effect”. In addition, the “persistence of antagonist effect on washing of ileum” value in data set [4] is “similar”.
